Measured values published in USRE42890E1, “Furazanobenzimidazoles” (Basilea Pharmaceutica AG, priority 2003, dated 2011).
pIC50: −log10 of the molar value. Where two headings read alike, the source gives them in different places.

How the values were obtained:
Jurkat = test: MTS proliferation assay, Jurkat; format: cell-based, human; conditions: 72 h incubation, read-out: MTS proliferation assay IC 50 Jurkat
Description: (§1) Cell lines are cultured in RPMI-1640 tissue culture medium containing either 5% or 10% fetal calf serum, 0.05 mM 2-mercaptoethanol, 2 mM glutamine and penicillin/streptomycin 50 μg/ml (complete medium) (Sigma, Buchs, Switzerland). General growth conditions are 37° C. and 7.5% CO2.
(§2) The following human cell lines (either EGFP transfected or not) are being used: HeLa (ATCC: CCL-2), KB (ATCC: CCL-17), MCF7 (ATCC: HTB-22), SK-BR-3 (ATCC: HTB-30), SK-Mel 1 (ATCC: HTB-67), SK-Mel 28 (ATCC: HTB-72), PC-3 (ATCC: CRL-1435), SW 480 (ATCC: CCL-228), NCl-H460 (ATCC: HTB-177), NCl-H1792 (ATCC: CRL-5895), HT1080 (ATCC: CCL-21), Jurkat (ATCC: TIB-152), Ramos (ATCC: CRL-1596), Raji (ATCC: CCL-86), H9 (ATCC: HTB-176), Hut78 (ATCC: TIB-161), K562 (ATCC: CCL 243), HL-60 (ATCC: CCL 240), U-87MG (ATCC: HTB-14), HepG2 (ATCC: HB-8065), U-2 OS (ATCC: HTB-96), Saos-2 (ATCC: HTB-85), U937 (ATCC: CRL 1593), Hs 578T (ATCC: HTB 126), HBL-100 (ATCC: HTB 124), Molt-4 (ATCC: CRL 1582).
(§3) The assay is performed in 96 well tissue culture plates. The cells (range: 1.5*10^3-10^4) are seeded out in 80 μl complete medium 24 h prior to compound treatment. The test compounds are added in 20 μl complete medium containing max 5% DMSO. The final compound concentrations in the assays are 10 μM, 3 μM, 1 μM and 0.3 μM, respectively. The assay plates are incubated for 72 h at culture conditions. The MTS reagent is prepared according to the manufacturer's protocol (Promega G1111). 20 μl MTS reagent are added to each well, the assay plates are quickly spun and incubated for another 3 h at culture conditions. Subsequently, the plates are shortly shaked and absorption measured with a microplate-reader at 492 nm.

HeLa = test: MTS proliferation assay, HeLa; format: cell-based, human; conditions: 72 h incubation, read-out: MTS proliferation assay IC 50 HeLa
Description: as §1, §2, §3

MRC5 = test: MTS proliferation assay, MRC5; format: cell-based; conditions: MRC5, 72 h incubation, read-out: MTS proliferation assay IC 50 MRC5
Description: as §1, §3

[1] = tested on: adherent cells or suspension cells; test: Hoechst 33342 nuclear staining (fraction of apoptotic nuclei); format: cell-based; design: key: 0 relating to no activity; 1 relating to weak activity comprising less than 70% of the cells; score 2 relating to strong activity comprising more than 70% of the cells
Description: as §1
This assay is performed in 96 well tissue culture plates. Appropriate number of cells (adherent cells: 3-5*10^3, suspension cells: 8-10*10^3) are being seeded out in 80 μl complete medium. Adherent cells are incubated for 24 h for proper spreading out before addition of test compounds while suspension cells are immediately treated with test compounds after seeding out. The test compounds are added in 20 μl complete medium containing max 5% DMSO. […] After 24 h or 48 h incubation at culture conditions, 10 μl medium containing Hoechst 33342 dye (Sigma B-2261) at 2-5 μg/ml are added to each well. The assay plates are then further incubated for 30 minutes and subsequently analyzed with a standard inverted fluorescence microscope.
The readout allows the determination of the fraction of apoptotic nuclei as well as other morphological criteria specific for apoptosis as a function of the treatment. The following scores are used: 0 relating to no activity, 1 relating to weak activity comprising less than 70% of the cells and score 2 relating to strong activity comprising more than 70% of the cells.

pIC50 (Jurkat) | pIC50 (HeLa) | Structure (SMILES) | pIC50 (MRC5) | Hoechst 33342 nuclear staining score ([1]; H460, conc 0.01 μm) | Hoechst 33342 nuclear staining score ([1]; H460, conc 0.1 μm) | Hoechst 33342 nuclear staining score ([1]; H460, conc 1 μm) | Hoechst 33342 nuclear staining score ([1]; HeLa, conc 0.01 μm) | Hoechst 33342 nuclear staining score ([1]; HeLa, conc 0.1 μm) | Hoechst 33342 nuclear staining score ([1]; HeLa, conc 1 μm) | Hoechst 33342 nuclear staining score ([1]; Jurkat, conc 0.01 μm) | Hoechst 33342 nuclear staining score ([1]; Jurkat, conc 0.1 μm) | Hoechst 33342 nuclear staining score ([1]; Jurkat, conc 1 μm) | Hoechst 33342 nuclear staining score ([1]; MRC5, conc 0.01 μm) | Hoechst 33342 nuclear staining score ([1]; MRC5, conc 0.1 μm) | Hoechst 33342 nuclear staining score ([1]; MRC5, conc 1 μm) | Hoechst 33342 nuclear staining score ([1]; PBLs, conc 0.01 μm) | Hoechst 33342 nuclear staining score ([1]; PBLs, conc 0.1 μm) | Hoechst 33342 nuclear staining score ([1]; PBLs, conc 1 μm) | Hoechst 33342 nuclear staining score ([1]; Jily, conc 0.01 μm) | Hoechst 33342 nuclear staining score ([1]; Jily, conc 0.1 μm) | further results
< 6.00 | < 6.00 | Nc1nonc1-c1nc2ccccc2n1CC(=NO)c1ccc(-c2ccccc2)cc1 (mixture of isomers) [Example 27] | < 6.00 | 0 | 0 | 0 | 0 | 0 | 0 | 0 | 0 | 0 | 0 | 0 | 0 | 0 | 0 | 0 |  |  | 
< 6.00 | < 6.00 | CON=C(Cn1c(-c2nonc2N)nc2ccccc21)c1ccc(-c2ccccc2)cc1 (mixture of isomers) [Example 28] | < 6.00 | 0 | 0 | 0 | 0 | 0 | 0 | 0 | 0 | 0 | 0 | 0 | 0 | 0 | 0 | 0 | 0 | 0 | Hoechst 33342 nuclear staining score ([1]; Jily, conc 1 μm): 0
< 6.00 | < 6.00 | Nc1nonc1-c1nc2ccccc2n1CC(=NO)c1ccccc1Cl (mixture of isomers) [Example 33] | < 6.00 | 0 | 0 | 0 | 0 | 0 | 0 | 0 | 0 | 0 | 0 | 0 | 0 | 0 | 0 | 0 | 0 | 0 | Hoechst 33342 nuclear staining score ([1]; Jily, conc 1 μm): 0
< 6.00 | < 6.00 | CON=C(Cn1c(-c2nonc2N)nc2ccccc21)c1ccccc1Cl (mixture of isomers) [Example 34] | < 6.00 | 0 | 0 | 0 | 0 | 0 | 0 | 0 | 0 | 0 | 0 | 0 | 0 | 0 | 0 | 0 | 0 | 0 | Hoechst 33342 nuclear staining score ([1]; Jily, conc 1 μm): 0
6.00 to 7.00 | 6.00 to 7.00 | CON=C(Cn1c(-c2nonc2N)nc2ccccc21)c1cccc(Cl)c1 (mixture of isomers) [Example 37] | 6.00 to 7.00 | 0 | 0 | 0 | 0 | 0 | 0 |  |  |  | 0 | 0 | 1 (1 relating to weak activity comprising less than 70% of the cells) | 0 | 0 | 0 | 0 | 0 | Hoechst 33342 nuclear staining score ([1]; Jily, conc 1 μm): 2 (score 2 relating to strong activity comprising more than 70% of the cells)
6.00 to 7.00 | 6.00 to 7.00 | CON=C(Cn1c(-c2nonc2N)nc2ccccc21)c1ccc(OC)cc1 (mixture of isomers) [Example 38] | < 6.00 | 0 | 0 | 0 | 0 | 0 | 0 | 0 | 0 | 0 | 0 | 0 | 0 | 0 | 0 | 0 | 0 | 0 | Hoechst 33342 nuclear staining score ([1]; Jily, conc 1 μm): 0
 |  | Nc1nonc1-c1nc2ccccc2n1CC(=O)c1ccccc1 [Example 1, 4-(1-Phenacyl-1H-benzimidazol-2-yl)-furazan-3-ylamine] |  | 0 | 0 | 2 (score 2 relating to strong activity comprising more than 70% of the cells) | 0 | 0 | 2 (score 2 relating to strong activity comprising more than 70% of the cells) | 0 | 0 | 2 (score 2 relating to strong activity comprising more than 70% of the cells) | 0 | 0 | 1 (1 relating to weak activity comprising less than 70% of the cells) | 0 | 0 | 0 |  |  | pIC50 (Jurkat; Homo sapiens): 7.00 to 8.00; pIC50 (HeLa; Homo sapiens): 6.00 to 7.00; pIC50 (MRC5; Homo sapiens): < 6.00
 |  | Nc1nonc1-c1nc2ccccc2n1CC(=NO)c1ccc(Br)cc1 [Example 2, 4-[1-(4-Bromophenacyl)-1H-benzimidazol-2-yl]-furazan-3-ylamine oxime] |  | 0 | 0 | 0 | 0 | 0 | 0 | 0 | 0 | 0 | 0 | 0 | 0 | 0 | 0 | 0 |  |  | pIC50 (Jurkat; Homo sapiens): < 6.00; pIC50 (HeLa; Homo sapiens): < 6.00; pIC50 (MRC5; Homo sapiens): < 6.00
